Data taken from patent publication US10934285B2, “Compounds and compositions for inhibiting the activity of SHP2” (Novartis AG, priority 2016, dated 2021).

Molecular target: SHP2 (Homo sapiens (Human), UniProt Q06124)
Experiment: SHP2 Allosteric Inhibition Assay
Assay type: biochemical
Details: 0.5 nM SHP2 activated with 0.5 μM peptide IRS1_pY1172(dPEG8)pY1222; surrogate substrate DiFMUP; prompt fluorescence
Text: SHP2 Allosteric Inhibition Assay
SHP2 is allosterically activated through binding of bis-tyrosyl-phorphorylated peptides to its Src Homology 2 (SH2) domains. The latter activation step leads to the release of the auto-inhibitory interface of SHP2, which in turn renders the SHP2 protein tyrosine phosphatase (PTP) active and available for substrate recognition and reaction catalysis. The catalytic activity of SHP2 was monitored using the surrogate substrate DiFMUP in a prompt fluorescence assay format.
After 30-60 minutes incubation at 25° C., the surrogate substrate DiFMUP (Invitrogen, cat #D6567) was added to the reaction and incubated at 25° C. for 30 minutes. […] The inhibitor dose response curves were analyzed using normalized IC50 regression curve fitting with control based normalization.

SMILES	IC50
NCC1CCN(c2cnc(Sc3cccc(NC(=O)c4c(O)nc5ccccn5c4=O)c3Cl)c(N)n2)C1 (centres unmarked) [Example 17]	13 nM
Nc1nc(N2CCC(N)(CF)CC2)cnc1Sc1cccc(NC(=O)c2c(O)nc3ccccn3c2=O)c1Cl [Example 13, N-(3-((3-amino-5-(4-amino-4-(fluoromethyl)piperidin-1-yl)pyrazin-2-yl)thio)-2-chlorophenyl)-2-hydroxy-4-oxo-4H-pyrido[1,2-a]pyrimidine-3-carboxamide]	4.6 nM
CC1(N)CCN(c2cnc(Sc3ccc(NC(=O)C4=C(O)CN(c5ccccc5)C4=O)cc3Cl)c(N)n2)CC1 [Example 50, N-(4-((3-Amino-5-(4-amino-4-methylpiperidin-1-yl)pyrazin-2-yl)thio)-3-chlorophenyl)-4-hydroxy-2-oxo-1-phenyl-2,5-dihydro-1H-pyrrole-3-carboxamide]	70 nM
O=C(Nc1cccc(Sc2ccc3nc(N4CCCCC4)[nH]c3n2)c1Cl)C1=C(O)[C@H](c2ccccc2)NC1=O [Example 64, (S)-N-(2-chloro-3-((2-(piperidin-1-yl)-3H-imidazo[4,5-b]pyridin-5-yl)thio)phenyl)-4-hydroxy-2-oxo-5-phenyl-2,5-dihydro-1H-pyrrole-3-carboxamide]	90 nM
CC1(CN)CCN(c2cnc(Sc3cccc(NC(=O)c4c(O)nc5n(c4=O)CCCC5)c3Cl)c(N)n2)CC1 [Example 7, N-(3-((3-amino-5-(4-(aminomethyl)-4-methylpiperidin-1-yl)pyrazin-2-yl)thio)-2-chlorophenyl)-2-hydroxy-4-oxo-6,7,8,9-tetrahydro-4H-pyrido[1,2-a]pyrimidine-3-carboxamide]	6 nM
CC1(CN)CCN(c2cnc(Sc3cccc(NC(=O)c4c(O)nc5cnccn5c4=O)c3Cl)c(N)n2)CC1 [Example 5, N-(3-((3-amino-5-(4-(aminomethyl)-4-methylpiperidin-1-yl)pyrazin-2-yl)thio)-2-chlorophenyl)-2-hydroxy-4-oxo-4H-pyrazino[1,2-a]pyrimidine-3-carboxamide]	3 nM
O=C(Nc1cccc(Sc2ccc3nc(N4CCCCC4)[nH]c3n2)c1Cl)c1c(O)nc2ccccn2c1=O [Example 48, N-(2-chloro-3-((2-(piperidin-1-yl)-3H-imidazo[4,5-b]pyridin-5-yl)thio)phenyl)-2-hydroxy-4-oxo-4H-pyrido[1,2-a]pyrimidine-3-carboxamide]	61 nM
CC1(CN)CCN(c2nnc(Sc3cccc(NC(=O)c4c(O)nc5ccccc5c4O)c3Cl)c(N)n2)CC1 [Example 31, N-(3-((5-amino-3-(4-(aminomethyl)-4-methylpiperidin-1-yl)-1,2,4-triazin-yl)thio)-2-chlorophenyl)-2,4-dihydroxyquinoline-3-carboxamide]	38 nM
CC1(CN)CCN(c2nnc(Sc3cccc(NC(=O)c4c(O)nc5c6ccccc6ccn5c4=O)c3Cl)c(N)n2)CC1 [Example 39, N-(3-((5-amino-3-(4-(aminomethyl)-4-methylpiperidin-1-yl)-1,2,4-triazin-6-yl)thio)-2-chlorophenyl)-2-hydroxy-4-oxo-4H-pyrimido[2,1-a]isoquinoline-3-carboxamide]	13 nM
CN1C(=O)C(C(=O)Nc2cccc(Sc3ccc4nc(N5CCCCC5)[nH]c4n3)c2Cl)=C(O)C1(C)C [Example 65, N-(2-chloro-3-((2-(piperidin-1-yl)-3H-imidazo[4,5-b]pyridin-5-yl)thio)phenyl)-4-hydroxy-1,5,5-trimethyl-2-oxo-2,5-dihydro-1H-pyrrole-3-carboxamide]	42 nM
CC1(CN)CCN(c2nnc(Sc3cccc(NC(=O)c4c(O)nc5ccccn5c4=O)c3Cl)c(N)n2)CC1 [Example 33, N-(3-((5-amino-3-(4-(aminomethyl)-4-methylpiperidin-1-yl)-1,2,4-triazin-6-yl)thio)-2-chlorophenyl)-2-hydroxy-4-oxo-4H-pyrido[1,2-a]pyrimidine-3-carboxamide]	10 nM

Further compounds by falling IC50, results first:

IC50	SMILES
2190 nM	Nc1nc(N2CCC(N)(C(F)(F)F)CC2)cnc1Sc1cccc(NC(=O)c2c(O)nc3ccccn3c2=O)c1Cl [Example 19, N-(3-((3-amino-5-(4-amino-4-(trifluoromethyl)piperidin-1-yl)pyrazin-2-yl)thio)-2-chlorophenyl)-2-hydroxy-4-oxo-4H-pyrido[1,2-a]pyrimidine-3-carboxamide]
1030 nM	Cn1c(=O)c(C(=O)Nc2cccc(Sc3ncc(N4CCC(C)(CN)CC4)nc3N)c2Cl)c(O)c2c(C3CC3)csc21 [Example 4, N-(3-((3-amino-5-(4-(aminomethyl)-4-methylpiperidin-1-yl)pyrazin-2-yl)thio)-2-chlorophenyl)-3-cyclopropyl-4-hydroxy-7-methyl-6-oxo-6,7-dihydrothieno[2,3-b]pyridine-5-carboxamide]
80 nM	Cc1oc(=O)oc1COC(=O)NCC1(C)CCN(c2cnc(Sc3cccc(NC(=O)c4c(O)nc5ccccn5c4=O)c3Cl)c(N)n2)CC1 [Example 25, (5-Methyl-2-oxo-1,3-dioxol-4-yl)methyl ((1-(6-amino-5-((2-chloro-3-(2-hydroxy-4-oxo-4H-pyrido[1,2-a]pyrimidine-3-carboxamido)phenyl)thio)pyrazin-2-yl)-4-methylpiperidin-4-yl)methyl)carbamate]
17 nM	CC1(N)CCN(c2cnc(Sc3cccc(NC(=O)C4=C(O)CN(c5ccccc5)C4=O)c3)c(N)n2)CC1 [Example 66, N-(3-((3-Amino-5-(4-amino-4-methylpiperidin-1-yl)pyrazin-2-yl)thio)phenyl)-4-hydroxy-2-oxo-1-phenyl-2,5-dihydro-1H-pyrrole-3-carboxamide]
14 nM	CC1(CN)CCN(c2nnc(Sc3cccc(NC(=O)c4c(O)nc5cnccn5c4=O)c3Cl)c(N)n2)CC1 [Example 34, N-(3-((5-amino-3-(4-(aminomethyl)-4-methylpiperidin-1-yl)-1,2,4-triazin-6-yl)thio)-2-chlorophenyl)-2-hydroxy-4-oxo-4H-pyrazino[1,2-a]pyrimidine-3-carboxamide]
14 nM	CC1(N)CCN(c2cnc(Sc3cccc(NC(=O)c4c(O)nc5n(c4=O)CCCC5)c3Cl)cn2)CC1 [Example 44, N-(3-((5-(4-amino-4-methylpiperidin-1-yl)pyrazin-2-yl)thio)-2-chlorophenyl)-2-hydroxy-4-oxo-6,7,8,9-tetrahydro-4H-pyrido[1,2-a]pyrimidine-3-carboxamide]
12 nM	CC1(CN)CCN(c2nnc(Sc3cccc(NC(=O)C4=C(O)CN(c5ccccc5)C4=O)c3Cl)c(N)n2)CC1 [Example 51, N-(3-((5-amino-3-(4-(aminomethyl)-4-methylpiperidin-1-yl)-1,2,4-triazin-6-yl)thio)-2-chlorophenyl)-4-hydroxy-2-oxo-1-phenyl-2,5-dihydro-1H-pyrrole-3-carboxamide]
12 nM	NCC1(O)CCN(c2cnc(Sc3cccc(NC(=O)c4c(O)nc5n(c4=O)CCCC5)c3Cl)c(N)n2)CC1 [Example 11, N-(3-((3-amino-5-(4-(aminomethyl)-4-hydroxypiperidin-1-yl)pyrazin-2-yl)thio)-2-chlorophenyl)-2-hydroxy-4-oxo-6,7,8,9-tetrahydro-4H-pyrido[1,2-a]pyrimidine-3-carboxamide]
8 nM	CC1(CN)CCN(c2nnc(Sc3cccc(NC(=O)c4c(O)nc5sccn5c4=O)c3Cl)c(N)n2)CC1 [Example 32, N-(3-((5-amino-3-(4-(aminomethyl)-4-methylpiperidin-1-yl)-1,2,4-triazin-6-yl)thio)-2-chlorophenyl)-7-hydroxy-5-oxo-5H-thiazolo[3,2-a]pyrimidine-6-carboxamide]
7.3 nM	CN1C(=O)C(C(=O)Nc2cccc(Sc3ncc(N4CCC(C)(N)CC4)nc3N)c2Cl)=C(O)C1Cc1ccccc1 (centres unmarked) [Example 54, N-(3-((3-amino-5-(4-amino-4-methylpiperidin-1-yl)pyrazin-2-yl)thio)-2-chlorophenyl)-5-benzyl-4-hydroxy-1-methyl-2-oxo-2,5-dihydro-1H-pyrrole-3-carboxamide]
6 nM	CC1(CN)CCN(c2cnc(Sc3cccc(NC(=O)c4c(O)nc5sccn5c4=O)c3Cl)c(N)n2)CC1 [Example 3, N-(3-((3-amino-5-(4-(aminomethyl)-4-methylpiperidin-1-yl)pyrazin-2-yl)thio)-2-chlorophenyl)-7-hydroxy-5-oxo-5H-thiazolo[3,2-a]pyrimidine-6-carboxamide]
6 nM	CC1(CN)CCN(c2nnc(Sc3cccc(NC(=O)C4=C(O)NC5CCCCN5C4=O)c3Cl)c(N)n2)CC1 (centres unmarked) [Example 37, N-(3-((5-amino-3-(4-(aminomethyl)-4-methylpiperidin-1-yl)-1,2,4-triazin-6-yl)thio)-2-chlorophenyl)-2-hydroxy-4-oxo-4,6,7,8,9,9a-hexahydro-1H-pyrido[1,2-a]pyrimidine-3-carboxamide]
4 nM	CC1(N)CCN(c2cnc(Sc3cccc(NC(=O)C4=C(O)CN(c5ccccc5)C4=O)c3C(F)(F)F)c(N)n2)CC1 [Example 67, N-(3-((3-Amino-5-(4-amino-4-methylpiperidin-1-yl)pyrazin-2-yl)thio)-2-(trifluoromethyl)phenyl)-4-hydroxy-2-oxo-1-phenyl-2,5-dihydro-1H-pyrrole-3-carboxamide]
3 nM	CC1(N)CCN(c2nnc(Sc3cccc(NC(=O)C4=C(O)CN(c5ccccc5)C4=O)c3Cl)c(N)n2)CC1 [Example 52, N-(3-((5-amino-3-(4-amino-4-methylpiperidin-1-yl)-1,2,4-triazin-6-yl)thio)-2-chlorophenyl)-4-hydroxy-2-oxo-1-phenyl-2,5-dihydro-1H-pyrrole-3-carboxamide]
1 nM	Nc1nc(N2CCC3(CCC[C@H]3N)CC2)cnc1Sc1cccc(NC(=O)c2c(O)nc3n(c2=O)CCCC3)c1Cl [Example 24, (R)-N-(3-((3-amino-5-(1-amino-8-azaspiro[4.5]decan-8-yl)pyrazin-2-yl)thio)-2-chlorophenyl)-2-hydroxy-4-oxo-6,7,8,9-tetrahydro-4H-pyrido[1,2-a]pyrimidine-3-carboxamide]
